Measurements as given in PubChem BioAssay AID1996.
≈ marks a conversion by molar mass, not a printed value.

Details: buffer; pH 7.4; 200.0 µM

SMILES	solubility kinetic [µg/mL]
O=C(N/N=C/c1cccnc1)c1ccccc1Cl	> 39
COCC(C)Nc1ccc(S(=O)(=O)N2CCCC2)cc1[N+](=O)[O-] (centres undefined)	44.2 (≈ 129 µM)
CC(C)CCN(CCC(C)C)C(=O)Cc1c(O)c2ccccc2[nH]c1=O	2.7 (≈ 7.53 µM)
COc1ccccc1C1C(C(C)=O)=C(O)C(=O)N1c1ccc(O)cc1 (centres undefined)	> 50.9
O=C1CCCN1CCC1CCCCN1Cc1nc(-c2cnccn2)no1 (centres undefined)	> 53.5
O=C(O)Cc1c(C(=O)O)[nH]c2ccc(C(=O)O)cc12	> 39.5
O=C(COC(=O)c1cccc(C(F)(F)F)c1)NC(=O)NC1CCCC1	5.2 (≈ 14.5 µM)
CC(=O)Nc1ccc2nc(-c3cccn3C)[nH]c2c1	33.4 (≈ 131 µM)
CCC(Oc1ccccc1)C(=O)NCCCN1CCOCC1 (centres undefined)	> 46
O=C(CN1C(=O)NC2(CCCC2)C1=O)N1CCN(c2ccccc2O)CC1	> 55.9
COC(=O)c1ccc(S(=O)(=O)c2ccc([N+](=O)[O-])cc2)cc1	0.9 (≈ 2.8 µM)
O=S(=O)(c1ccc(-c2ccon2)s1)N1CCCC1	11.5 (≈ 40.4 µM)
COc1ccccc1NC(=O)NC(=O)c1ccccc1	0.4 (≈ 1.48 µM)
Cc1cccc(NC(=O)CCCc2ccccc2)c1	31.3 (≈ 124 µM)
CCS(=O)c1ccccc1C(=O)OCC(=O)Nc1ccc2ccccc2c1 (centres undefined)	45.8 (≈ 120 µM)
Fc1ccccc1NC(=S)N1CCOCC1	> 36
COc1ccc(NC(=O)Nc2ccon2)cc1OC	> 39.5
Cc1ccc(NC(=O)Nc2ccno2)cc1	> 32.6
C=Cn1cc[n+](CC(=O)c2ccc(Br)s2)c1.[Br-]	53
O=C(NC(=S)Nc1cccnc1)c1cccs1	10.4 (≈ 39.5 µM)
O=[N+]([O-])c1ccc(-c2cnc3ccccc3n2)cc1	0.6 (≈ 2.39 µM)
C=CCNc1nc(NCc2ccccc2)nc(OCC)n1	36.6 (≈ 128 µM)
CCCCC(=O)NNC(=O)N1c2ccccc2Sc2ccccc21	> 51.2
CC(=O)c1ccc(N2CCN(Cc3nc4ccccc4[nH]3)CC2)cc1	29.8 (≈ 89.1 µM)

SMILES	solubility kinetic [µg/mL]
CC1Cc2ccccc2N1C(=S)NC1CCCC1 (centres undefined)	13.7 (≈ 52.6 µM)
CC(NCC(=O)Nc1ccccc1C(=O)NC1CC1)c1cccs1 (centres undefined)	> 51.5
CC(C)(C)c1ccc(C(=O)N2CCN(c3ncccn3)CC2)cc1	9.6 (≈ 29.6 µM)
N#CN/C(=N\S(=O)(=O)c1ccccc1)c1ccccc1	32.3 (≈ 113 µM)
Cc1ccc(S(=O)(=O)N(C)c2ccc(OCC(=O)OCc3ccc(C#N)cc3)cc2)cc1	8.4 (≈ 18.6 µM)
COc1cc2c(cc1OC)CN(C(=O)c1ccc3[nH]c(C)c(C)c3c1)CC2	6.9 (≈ 18.9 µM)
Cc1onc(-c2ccccc2Cl)c1C(=O)NCc1ccccc1F	> 51.7
COc1cc(C(=O)NC(=S)N2CCCCCC2)cc(OC)c1OC	15.8 (≈ 44.8 µM)
N#C/C(=C\c1ccc(F)cc1)C(=O)Nc1ccccn1	19 (≈ 71.1 µM)
CCCc1cc(C(=O)OC)c(NC(=O)CCCC(=O)O)s1	> 47
Cc1nc2sccc2c(=O)n1N	> 27.2
COc1ccc(C(C)=O)cc1CC(=O)Nc1ccc2c(c1)CCC2	7.9 (≈ 24.4 µM)
Cc1nn(CC(=O)NC2CCCC2)c(C)c1[N+](=O)[O-]	> 39.9
N#Cc1ccc(C(=O)OCC(=O)N2CCCCCC2)cc1	> 42.9
O=C(CCN1C(=O)c2ccccc2C1=O)NCc1ccc(F)cc1	> 48.9
CC(C)(C)Nc1nc(-c2ccc3c(c2)CCN3C(=O)C2CC2)cs1	5.4 (≈ 15.8 µM)
O=C(N/C=C/c1ccco1)Nc1cccc(Cl)c1	31.3 (≈ 119 µM)
Cc1cccc2c(=O)oc(-c3ccccc3Cl)nc12	< 0.6
COc1ccc2[nH]c(C(=O)N3CCN(C)CC3)c(C)c2c1	> 43.1
NC(=O)c1ccccc1NC(=O)c1cccc(C(=O)Nc2ccccc2C(N)=O)n1	5.3 (≈ 13.1 µM)
O=C(O)C1CCCCN1C(=O)c1cc2c(s1)CCCCC2 (centres undefined)	> 46.1
Nc1nc(NCCN2CCOCC2)nc(NCc2ccccc2)c1[N+](=O)[O-]	12 (≈ 32.1 µM)
Cc1cccc(-n2c(=S)[nH]c3ccccc3c2=O)n1	> 40.4
CCOc1ccccc1NC(=O)c1ccc(CN2CCc3ccccc3C2)cc1	2.3 (≈ 5.95 µM)

SMILES	solubility kinetic [µg/mL]
COc1ccccc1CNC(=O)CN1C(=O)NC2(CCCCCC2)C1=O	> 53.9
CCOC(=O)c1cc(C)nc(N2CCCCC2)c1C#N	11.5 (≈ 42.1 µM)
COc1cc(C(C)=O)ccc1Oc1ncccn1	> 36.6
N/C(=N\OC(=O)c1ccc(Cl)c([N+](=O)[O-])c1)c1ccccc1	7.9 (≈ 24.7 µM)
O=C(CN1C(=O)NC(Cc2c[nH]c3ccccc23)C1=O)NC1CC1 (centres undefined)	> 49
COc1ccc(CN2CCc3c([nH]c4ccccc34)C2)c(OC)c1C	35.2 (≈ 105 µM)
Cc1ccc(S(=O)(=O)N2CCN(C(=O)COC(=O)COc3cccc(C(F)(F)F)c3)CC2)c(C)c1	8.7 (≈ 16.9 µM)
O=C(NN1CCOCC1)c1ccc(F)cc1	> 33.6
C=CCNC(=O)/C(=C\c1ccco1)NC(=O)c1ccco1	> 42.9
O=C(N/N=C/c1cccnc1)c1cc(C2CC2)nc2ccccc12	> 47.5
CCOc1ccc(N2CC(C(=O)NCc3ccccc3)CC2=O)cc1 (centres undefined)	9.8 (≈ 29 µM)
NC(=O)c1oc2ccccc2c1NC(=O)Cc1ccccc1	43.7 (≈ 148 µM)
O=C(Nc1cccc(NC(=O)c2ccc([N+](=O)[O-])o2)c1)c1ccco1	4.5 (≈ 13.2 µM)
COc1ccc(C(=O)O)cc1S(=O)(=O)NCc1ccncc1	> 48.4
COc1ccccc1C(=O)O/N=C(\N)c1ccccn1	> 40.7
COc1cc2c(cc1OC)CN(C(=O)/C=C/c1cccs1)CC2	> 49.4
CC12CCC(C(=O)Nc3ccc(Br)cn3)(OC1=O)C2(C)C (centres undefined)	> 53
C=CCn1c(SCC(N)=O)nc2sc3c(c2c1=O)CCC3	38.6 (≈ 120 µM)
CSc1ncc(C(=O)Nc2ccc(C(C)=O)cc2)c(C)n1	> 45.2
O=C(Nc1ccc(Cl)c([N+](=O)[O-])c1)ONC1=NCCCCC1	42.4 (≈ 130 µM)
O=C(NC(Cc1ccccc1)C(=O)NC1CC1)OCc1ccccc1 (centres undefined)	11.5 (≈ 34 µM)
NC(=O)CSc1ccc(F)cc1	> 27.8
CCOC(=O)COn1c(=O)c(-c2ccccc2)[n+]([O-])c2ccccc21	35.2 (≈ 103 µM)
O=C(Nc1ccc(Br)cn1)c1ccc2ccccc2c1	< 0.4

SMILES	solubility kinetic [µg/mL]
Cc1cc(C(=O)Nc2ccc(Br)cc2)c2ccccc2n1	0.5 (≈ 1.47 µM)
CN(Cc1ccccc1)c1nc(N)nc(Cl)c1C=O	26.4 (≈ 95.4 µM)
O=C(CCSc1nc2ccccc2o1)Nc1ccccc1	4.2 (≈ 14.1 µM)
COc1ccc2c(c1)c1ncn(CC3CCCO3)c(=O)c1n2C (centres undefined)	38.6 (≈ 123 µM)
Cc1ccc(S(=O)(=O)N2CCOCC2)cc1C(=O)OCC(=O)NC1CCCC1	> 61.6
O=C1CCCC/C1=C\Nc1ccc(S(=O)(=O)Nc2cnc3ccccc3n2)cc1	15.9 (≈ 38.9 µM)
CN(C)C(=S)SCC(=O)NC(=O)NC(C)(C)C	39.4 (≈ 142 µM)
CCc1c(C)sc(NC(=S)Nc2cccnc2)c1C(=O)OC	> 50.3
CN(C)CCCNC(=S)Nc1ccc(-c2ccccc2)cc1	42.8 (≈ 137 µM)
O=C(NNC(=O)c1cccnc1Cl)c1ccc(F)cc1	> 44.1
COc1cccc(NC(=O)Nc2nc(SC)ns2)c1	1.3 (≈ 4.39 µM)
COc1ccc(/C=C2\SC(N)=NC2=O)cc1Cl	3.1 (≈ 11.5 µM)
Cc1nc(COc2ccccc2Cl)sc1-c1ccnc(N)n1	1.2 (≈ 3.61 µM)
CCCn1c(=S)[nH]c2sc3c(c2c1=O)CCCC3	1.4 (≈ 4.99 µM)
Cl.OC(CNCc1cccnc1)COc1ccc2ccccc2c1 (centres undefined)	43.5
O=C(NCCS(=O)(=O)NCC1CCCO1)c1ccccc1 (centres undefined)	> 46.9
O=C(O)C1CC=CCC1C(=O)Nc1cccc([N+](=O)[O-])c1 (centres undefined)	> 43.5
CN(Cc1ccccc1)C(=O)COc1cc(Cl)ccc1Cl	24.1 (≈ 74.3 µM)
CCOc1ccc(CNC(=O)Nc2ccccc2)cc1	3.8 (≈ 14.1 µM)
Cn1c(N)c(C(=O)COC(=O)Cc2ccc(Br)cc2)c(=O)n(C)c1=O	0.7 (≈ 1.71 µM)
CCNC(=O)CC1C(=O)N(c2cccc(C)c2)C(=O)N1CCC(C)C (centres undefined)	> 51.8
Cc1ccc(S(=O)(=O)Nc2nc(C)c(C)s2)cc1	13.5 (≈ 47.8 µM)
Cc1noc(C)c1S(=O)(=O)N(Cc1ccccc1)C(C)C	36.5 (≈ 118 µM)
Cc1ccc(-n2c(=O)[nH]c3c(oc4ccccc43)c2=O)cc1	38.8 (≈ 133 µM)

SMILES	solubility kinetic [µg/mL]
Cc1cc(NC(=O)CSc2cc(C)c3ccccc3n2)no1	2.2 (≈ 7.02 µM)
NS(=O)(=O)c1ccc(Nc2nc(-c3cccnc3)cs2)cc1	< 0.2
C=CCN=C1SC(C)(C)C(=O)N1S(=O)(=O)c1ccc(C)cc1	45.6 (≈ 135 µM)
COc1ccc2cc(C(=O)N3CCN(c4ccccc4F)CC3)[nH]c2c1	1.9 (≈ 5.38 µM)
CCOc1ccc(NC(=S)NCc2ccc3c(c2)OCO3)cc1	17.1 (≈ 51.8 µM)
CC(OC(=O)c1ccc(S(=O)(=O)NCc2ccco2)cc1)C(=O)Nc1ccccc1 (centres undefined)	7.4 (≈ 17.3 µM)
CCCC(C)NC(=O)CSc1nnc2ccccn12 (centres undefined)	> 41.8
COc1cc2c(cc1OC)CN(C(=O)CCNC(=O)c1ccccc1Cl)CC2	> 60.4
O=C(NCCc1cccs1)c1cccs1	> 35.6
CCN1C(=O)c2cccc3c(N)ccc(c23)C1=O	7.5 (≈ 31.2 µM)
CCOC(=O)Nc1cccnc1Sc1ccc(Cl)cc1	35.1 (≈ 114 µM)
Cc1ccc(C(=O)NCC(=O)NCC(c2cccs2)N(C)C)cc1C (centres undefined)	> 53.9
Cc1ccc2oc(=O)cc(CN3CC(C)OC(C)C3)c2c1 (centres undefined)	> 43.1
CC(=O)N1CCN(c2nc3ccc(Br)cc3s2)CC1	7.9 (≈ 23.2 µM)
CN(C)c1ccc(SC#N)cc1	4.2 (≈ 23.6 µM)
[O-][n+]1c2ccccc2[n+]([O-])c2cc(O)ccc21	> 34.2
O=C1c2cccnc2C(=O)N1CNc1ccc(Cl)cc1	34.5 (≈ 120 µM)
CCC(OC(=O)C1=Cc2ccccc2OC1)C(=O)NCc1ccco1 (centres undefined)	3.1 (≈ 9.08 µM)
Cc1cc(Cl)ccc1OCCCC(=O)NCc1ccccn1	> 47.8
COC(=O)/C=C1\SC(=NC(=O)c2ccc(-c3ccccc3)cc2)NC1=O	2.6 (≈ 7.1 µM)
CC(C)CNC(=O)CSc1nnc2ccccn12	> 39.7
O=C(NCc1ccccc1F)c1cccc(S(=O)(=O)N2CCCCC2)c1	5.8 (≈ 15.4 µM)
O=C(CN1CCC(NC(=O)C2CCCCC2)CC1)Nc1cccc(F)c1	18.4 (≈ 50.9 µM)
